# Patent publication US20190016689A1, “NOVEL FLUORINATED QUINAZOLINE DERIVATIVES AS EGFR INHIBITORS” (TRILLIUM THERAPEUTICS INC., priority 2016, published 2019)
# Where two headings read alike, the source gives them in different places.
# Tests used:
# [1] = Plasma and brain exposure in male CD-1 mice (Brain PK); type: in vivo; conditions: CD-1, mouse, brain; for AUC(0-t): read-out: AUC0-tlast; for half-life: read-out: Apparent t1/2 (converted); for MRT last: read-out: MRT0-tlast
# Protocol: Animals: Male CD-1 mice (20-25 g) from Charles River Labs will be acclimatized for a minimum of 5 days prior to dosing. Body weights will be recorded on the day of dosing. Food restriction: Animals dosed p.o. will be deprived of food overnight and fed ˜2 h following dosing. Clinical observations: Animals will be observed at the time of dosing and each sample collection. Any abnormalities will be documented. Dosing: Formulations will be administered i.v. via the tail vein and p.o. by gavage with disposable feeding needles. Sample collection: Terminal blood samples will be collected under O2/CO2 anesthesia by cardiac puncture and then the brain and lungs will be excised blotted and weighed. Sample processing/storage: All blood samples will be transferred into K2EDTA tubes and centrifuged (6,800 rpm for 5 min at 4° C.) to obtain plasma. All samples will be stored frozen at −80° C. until bioanalysis. Sample retention: Plasma, brain and lung samples will be analyzed and any remaining samples will be stored frozen at −80° C. until the study is completed.
# SW-620 = assay: NCI screening panel (SRB); type: cell-based; conditions: Homo sapiens, SW-620 (Colon), 48 h; for CC50: read-out: LC50 (the source's name)
# EPHA5 = target: T1, EPHA5 (Homo sapiens, UniProt P54756); assay: Binding to EPHA (kinase competition binding, qPCR); conditions: 300 nM, read-out: % Control @ 300 nM
# T1 construct: T7 phage fusion (kinase-tagged phage) or DNA tag for qPCR; made in house; host or cells: E. coli BL21-derived host (T7 phage) or HEK-293
# Protocol: (§1) The lysates were centrifuged and filtered to remove cell debris. […] All reactions were performed in polystyrene 96-well plates in a final volume of 0.135 ml.
# EPHA7 = target: T2, EPHA7 (Homo sapiens, UniProt Q15375); assay: Binding to EPHA (kinase competition binding, qPCR); conditions: 300 nM, read-out: % Control @ 300 nM
# T2 construct: T7 phage fusion (kinase-tagged phage) or DNA tag for qPCR; made in house; host or cells: E. coli BL21-derived host (T7 phage) or HEK-293
# Protocol: as §1
# EPHA1 = target: T3, EPHA1 (Homo sapiens, UniProt P21709); assay: Binding to EPHA (kinase competition binding, qPCR); conditions: 300 nM, read-out: % Control @ 300 nM
# T3 construct: T7 phage fusion (kinase-tagged phage) or DNA tag for qPCR; made in house; host or cells: E. coli BL21-derived host (T7 phage) or HEK-293
# Protocol: as §1
# EPHA2 = target: T4, EPHA2 (Homo sapiens, UniProt P29317); assay: Binding to EPHA (kinase competition binding, qPCR); conditions: 300 nM, read-out: % Control @ 300 nM
# T4 construct: T7 phage fusion (kinase-tagged phage) or DNA tag for qPCR; made in house; host or cells: E. coli BL21-derived host (T7 phage) or HEK-293
# Protocol: as §1
# EPHA4 = target: T5, EPHA4 (Homo sapiens, UniProt P54764); assay: Binding to EPHA (kinase competition binding, qPCR); conditions: 300 nM, read-out: % Control @ 300 nM
# T5 construct: T7 phage fusion (kinase-tagged phage) or DNA tag for qPCR; made in house; host or cells: E. coli BL21-derived host (T7 phage) or HEK-293
# Protocol: as §1
# EPHA8 = target: T6, EPHA8 (Homo sapiens, UniProt P29322); assay: Binding to EPHA (kinase competition binding, qPCR); conditions: 300 nM, read-out: % Control @ 300 nM
# T6 construct: T7 phage fusion (kinase-tagged phage) or DNA tag for qPCR; made in house; host or cells: E. coli BL21-derived host (T7 phage) or HEK-293
# Protocol: as §1
# EPHA3 = target: T7, EPHA3 (Homo sapiens, UniProt P29320); assay: Binding to EPHA (kinase competition binding, qPCR); conditions: 300 nM, read-out: % Control @ 300 nM
# T7 construct: T7 phage fusion (kinase-tagged phage) or DNA tag for qPCR; made in house; host or cells: E. coli BL21-derived host (T7 phage) or HEK-293
# Protocol: as §1
# SR = assay: NCI screening panel (SRB); type: cell-based; conditions: Homo sapiens, SR (Leukemia), 48 h; for CC50: read-out: LC50 (the source's name)
# Microsomal stability = type: in vitro ADME; conditions: Human liver microsomes with NADPH; for Remaining Percentage (%) after 60 min: 1 μM
# Protocol: Working stocks were initially diluted to a concentration of 40.0 μM in 0.1 M potassium phosphate buffer before addition to the reaction vials. Pooled mouse (CD-1, male) or human (50 donors) liver microsomes were utilized at a final concentration of 0.5 mg/ml. […] Reactions were carried out at 37° C. in a shaker, and the final concentration of DMSO was kept constant at 0.01%. The final volume for each reaction was 100 μL, which includes the addition of an NADPH-Regeneration solution (NRS) mix. This NRS mix is comprised of glucose 6-phosphate dehydrogenase (0.4 U/mL), NADP+(1.3 mM), MgCl2 (3.3 mM), and glucose 6-phosphate (3.3 mM) in assay mixtures. […] Samples were then centrifuged at 4,000 rpm for 10 minutes to remove debris and precipitated protein. Approximately 150 μL of supernatant was subsequently transferred to a new 96 well microplate for LC/MS analysis.
# Narrow-window mass extraction LC/MS analysis was performed for all samples using a Waters Xevo quadrupole time-of-flight (QTof) mass spectrometer and an ACQUITY UPLC system, to determine relative peak areas of parent compound.
# SN12C = assay: NCI screening panel (SRB); type: cell-based; conditions: Homo sapiens, SN12C (Renal), 48 h; for CC50: read-out: LC50 (the source's name)
# A549/ATCC = assay: NCI screening panel (SRB); type: cell-based; conditions: Homo sapiens, A549/ATCC (NSCLC), 48 h; for CC50: read-out: LC50 (the source's name)
# OVCAR-4 = assay: NCI screening panel (SRB); type: cell-based; conditions: Homo sapiens, OVCAR-4 (Ovarian), 48 h; for CC50: read-out: LC50 (the source's name)
# T4 sequence (P29317 24-976): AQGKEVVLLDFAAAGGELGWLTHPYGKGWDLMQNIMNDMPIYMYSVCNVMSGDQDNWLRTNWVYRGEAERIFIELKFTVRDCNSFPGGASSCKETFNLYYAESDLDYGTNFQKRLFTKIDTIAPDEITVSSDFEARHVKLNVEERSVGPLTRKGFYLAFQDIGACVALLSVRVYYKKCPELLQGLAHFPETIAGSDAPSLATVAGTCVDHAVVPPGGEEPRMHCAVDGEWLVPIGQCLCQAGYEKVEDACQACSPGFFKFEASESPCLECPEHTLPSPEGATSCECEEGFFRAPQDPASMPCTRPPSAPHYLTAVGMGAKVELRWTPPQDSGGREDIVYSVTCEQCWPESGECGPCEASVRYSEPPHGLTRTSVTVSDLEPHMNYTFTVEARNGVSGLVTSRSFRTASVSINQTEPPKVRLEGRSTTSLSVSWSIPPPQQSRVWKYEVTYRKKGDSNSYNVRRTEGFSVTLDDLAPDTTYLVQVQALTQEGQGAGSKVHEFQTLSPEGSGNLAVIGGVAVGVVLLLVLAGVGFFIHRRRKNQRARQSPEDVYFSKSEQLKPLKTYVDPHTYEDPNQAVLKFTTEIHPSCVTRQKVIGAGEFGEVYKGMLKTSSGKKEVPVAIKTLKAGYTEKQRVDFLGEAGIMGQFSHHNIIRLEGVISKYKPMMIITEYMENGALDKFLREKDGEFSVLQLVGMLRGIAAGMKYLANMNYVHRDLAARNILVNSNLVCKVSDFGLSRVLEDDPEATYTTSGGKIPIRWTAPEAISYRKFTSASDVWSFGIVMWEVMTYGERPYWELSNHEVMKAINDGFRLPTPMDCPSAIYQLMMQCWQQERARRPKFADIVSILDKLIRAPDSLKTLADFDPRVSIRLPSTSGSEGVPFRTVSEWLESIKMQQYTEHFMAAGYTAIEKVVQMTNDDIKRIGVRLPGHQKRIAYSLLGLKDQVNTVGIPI
# T7 sequence (P29320 21-983): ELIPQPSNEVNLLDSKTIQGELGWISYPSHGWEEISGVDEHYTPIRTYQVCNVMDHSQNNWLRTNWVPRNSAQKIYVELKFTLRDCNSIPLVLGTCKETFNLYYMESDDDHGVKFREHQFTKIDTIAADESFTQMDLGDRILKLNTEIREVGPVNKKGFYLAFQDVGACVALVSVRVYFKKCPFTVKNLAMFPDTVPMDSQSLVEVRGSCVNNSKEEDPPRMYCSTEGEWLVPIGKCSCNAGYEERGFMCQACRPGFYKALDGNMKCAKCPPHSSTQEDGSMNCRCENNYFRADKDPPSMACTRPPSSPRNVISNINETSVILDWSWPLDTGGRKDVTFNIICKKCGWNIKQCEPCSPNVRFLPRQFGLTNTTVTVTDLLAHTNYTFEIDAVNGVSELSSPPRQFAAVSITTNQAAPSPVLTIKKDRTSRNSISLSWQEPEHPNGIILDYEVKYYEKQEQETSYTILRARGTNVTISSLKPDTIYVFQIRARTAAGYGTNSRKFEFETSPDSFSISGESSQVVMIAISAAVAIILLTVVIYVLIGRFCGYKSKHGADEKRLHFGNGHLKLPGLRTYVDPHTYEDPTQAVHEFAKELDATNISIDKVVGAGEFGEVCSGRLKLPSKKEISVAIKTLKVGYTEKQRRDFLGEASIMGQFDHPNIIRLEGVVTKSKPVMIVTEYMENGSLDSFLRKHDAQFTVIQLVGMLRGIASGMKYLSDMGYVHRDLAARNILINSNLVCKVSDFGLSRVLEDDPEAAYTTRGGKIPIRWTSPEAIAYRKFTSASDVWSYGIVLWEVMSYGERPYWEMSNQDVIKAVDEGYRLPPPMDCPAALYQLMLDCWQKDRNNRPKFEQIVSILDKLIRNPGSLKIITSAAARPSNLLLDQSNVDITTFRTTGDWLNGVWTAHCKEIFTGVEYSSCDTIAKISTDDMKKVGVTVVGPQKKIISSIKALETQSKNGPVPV
# T1 sequence (P54756 25-1037): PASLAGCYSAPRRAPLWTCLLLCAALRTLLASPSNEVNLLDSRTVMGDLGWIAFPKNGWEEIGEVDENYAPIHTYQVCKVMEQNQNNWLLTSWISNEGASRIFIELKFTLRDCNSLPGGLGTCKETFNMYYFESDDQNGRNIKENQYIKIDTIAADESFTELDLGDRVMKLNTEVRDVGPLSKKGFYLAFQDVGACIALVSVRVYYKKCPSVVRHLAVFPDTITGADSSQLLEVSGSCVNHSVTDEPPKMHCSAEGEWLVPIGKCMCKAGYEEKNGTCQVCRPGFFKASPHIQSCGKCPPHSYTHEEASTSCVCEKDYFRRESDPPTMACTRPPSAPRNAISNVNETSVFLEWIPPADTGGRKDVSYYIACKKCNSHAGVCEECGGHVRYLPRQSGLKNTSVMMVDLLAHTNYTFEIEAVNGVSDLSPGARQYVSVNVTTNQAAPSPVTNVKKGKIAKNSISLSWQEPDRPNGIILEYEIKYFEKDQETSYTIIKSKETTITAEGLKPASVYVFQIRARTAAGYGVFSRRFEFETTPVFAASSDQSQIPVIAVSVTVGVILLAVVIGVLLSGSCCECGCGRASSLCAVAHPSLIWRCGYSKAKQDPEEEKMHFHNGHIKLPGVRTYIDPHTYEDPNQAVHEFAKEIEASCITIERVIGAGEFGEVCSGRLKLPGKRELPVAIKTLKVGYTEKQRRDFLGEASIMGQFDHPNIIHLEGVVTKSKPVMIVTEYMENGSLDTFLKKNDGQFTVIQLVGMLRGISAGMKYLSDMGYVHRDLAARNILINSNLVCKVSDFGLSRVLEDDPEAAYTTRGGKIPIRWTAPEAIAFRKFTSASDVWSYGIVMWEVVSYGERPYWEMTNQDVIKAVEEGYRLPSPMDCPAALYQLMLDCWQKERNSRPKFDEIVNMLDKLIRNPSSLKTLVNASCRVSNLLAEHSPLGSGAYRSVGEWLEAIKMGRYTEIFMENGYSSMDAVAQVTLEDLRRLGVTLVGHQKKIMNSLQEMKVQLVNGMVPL
# T3 sequence (P21709 26-976): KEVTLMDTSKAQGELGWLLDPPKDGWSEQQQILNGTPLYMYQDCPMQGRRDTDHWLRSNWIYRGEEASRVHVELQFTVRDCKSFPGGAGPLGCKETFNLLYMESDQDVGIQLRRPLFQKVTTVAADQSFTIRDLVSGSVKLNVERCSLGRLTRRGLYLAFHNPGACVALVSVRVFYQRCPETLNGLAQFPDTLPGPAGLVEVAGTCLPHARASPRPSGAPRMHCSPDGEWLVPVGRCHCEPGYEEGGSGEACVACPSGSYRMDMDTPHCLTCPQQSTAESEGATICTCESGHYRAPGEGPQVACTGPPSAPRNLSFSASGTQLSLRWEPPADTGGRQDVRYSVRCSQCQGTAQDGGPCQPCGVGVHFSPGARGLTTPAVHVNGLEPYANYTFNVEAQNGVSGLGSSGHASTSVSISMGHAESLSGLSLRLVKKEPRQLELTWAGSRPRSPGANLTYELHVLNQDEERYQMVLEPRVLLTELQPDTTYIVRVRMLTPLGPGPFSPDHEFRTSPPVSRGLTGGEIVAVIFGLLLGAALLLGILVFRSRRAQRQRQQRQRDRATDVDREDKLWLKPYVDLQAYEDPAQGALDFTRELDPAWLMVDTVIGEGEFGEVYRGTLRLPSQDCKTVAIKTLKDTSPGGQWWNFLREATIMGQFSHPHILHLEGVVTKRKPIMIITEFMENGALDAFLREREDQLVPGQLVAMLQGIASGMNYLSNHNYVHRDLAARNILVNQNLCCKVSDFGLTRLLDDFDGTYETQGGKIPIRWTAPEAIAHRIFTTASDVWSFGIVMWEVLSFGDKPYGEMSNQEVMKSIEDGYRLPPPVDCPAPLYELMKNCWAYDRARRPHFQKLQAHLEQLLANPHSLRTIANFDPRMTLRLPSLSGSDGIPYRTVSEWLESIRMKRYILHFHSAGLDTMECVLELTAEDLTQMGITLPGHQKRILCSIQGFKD
# T5 sequence (P54764 20-986): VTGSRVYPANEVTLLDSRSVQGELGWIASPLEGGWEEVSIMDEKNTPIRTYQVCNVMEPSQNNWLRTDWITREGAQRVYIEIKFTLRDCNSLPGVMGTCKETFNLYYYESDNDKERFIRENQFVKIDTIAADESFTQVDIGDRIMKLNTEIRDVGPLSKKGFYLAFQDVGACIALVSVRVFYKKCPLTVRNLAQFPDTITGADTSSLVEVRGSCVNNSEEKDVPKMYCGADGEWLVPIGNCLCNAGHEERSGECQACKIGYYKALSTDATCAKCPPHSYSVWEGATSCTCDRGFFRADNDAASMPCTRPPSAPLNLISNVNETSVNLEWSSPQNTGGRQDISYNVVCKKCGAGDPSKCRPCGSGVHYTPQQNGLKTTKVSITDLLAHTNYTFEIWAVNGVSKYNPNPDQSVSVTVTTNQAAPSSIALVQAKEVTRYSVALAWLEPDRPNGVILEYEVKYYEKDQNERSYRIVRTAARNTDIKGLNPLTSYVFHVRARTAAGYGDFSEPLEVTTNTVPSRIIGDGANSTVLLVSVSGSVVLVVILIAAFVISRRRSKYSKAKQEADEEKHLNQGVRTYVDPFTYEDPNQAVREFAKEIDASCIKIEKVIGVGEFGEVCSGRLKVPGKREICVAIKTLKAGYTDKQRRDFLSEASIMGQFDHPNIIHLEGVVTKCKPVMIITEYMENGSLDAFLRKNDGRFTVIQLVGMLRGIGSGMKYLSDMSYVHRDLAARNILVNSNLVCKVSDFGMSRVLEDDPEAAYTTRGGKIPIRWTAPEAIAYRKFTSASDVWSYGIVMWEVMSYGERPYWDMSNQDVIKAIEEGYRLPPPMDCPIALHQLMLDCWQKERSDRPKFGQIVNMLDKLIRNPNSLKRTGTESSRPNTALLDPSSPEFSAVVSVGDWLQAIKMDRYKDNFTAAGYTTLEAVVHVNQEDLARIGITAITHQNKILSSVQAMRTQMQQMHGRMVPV
smiles,measurement,setting,value
"CN(C)C/C=C/C(=O)Nc1cc2c(Nc3ccc(F)c(Cl)c3)ncnc2cc1O[C@H]1CCOC1 [Afatinib, reference compound]",Cmax,"[1]; iv, i.v. 1 mg/kg free base",12.7 ng/mL
same,Tmax,"[1]; iv, i.v. 1 mg/kg free base",0.0833 h
same,AUC(0-t),"[1]; iv, i.v. 1 mg/kg free base",44.5 ng·h/mL
same,half-life,"[1]; iv, i.v. 1 mg/kg free base",4.97 h
same,MRT last,"[1]; iv, i.v. 1 mg/kg free base",7.01 h
same,AUC(0-inf),"[1]; po, p.o. 25 mg/kg free base",704 ng·h/mL
same,Cmax,"[1]; po, p.o. 25 mg/kg free base",83.3 ng/mL
same,Tmax,"[1]; po, p.o. 25 mg/kg free base",4 h
same,AUC(0-t),"[1]; po, p.o. 25 mg/kg free base",688 ng·h/mL
same,half-life,"[1]; po, p.o. 25 mg/kg free base",3.69 h
same,MRT last,"[1]; po, p.o. 25 mg/kg free base",8.64 h
"CN(C)C/C=C/C(=O)Nc1cc2c(Nc3ccc(F)c(Cl)c3F)ncnc2cc1OCCOC(F)F.O=C(O)/C=C\C(=O)O.O=C(O)/C=C\C(=O)O [Example I-9-MA, (E)-N-[4-(3-chloro-2,4-difluoro-anilino)-7-[2-(difluoromethoxy)ethoxy]quinazolin-6-yl]-4-(dimethylamino)but-2-enamide di-maleic acid salt]",GI50,SW-620,1520 nM
same,CC50,SW-620,52700 nM
same,remaining binding at 0.3 µM,EPHA5,51%
same,remaining binding at 0.3 µM,EPHA7,56%
same,remaining binding at 0.3 µM,EPHA1,34%
same,remaining binding at 0.3 µM,EPHA2,92%
same,remaining binding at 0.3 µM,EPHA4,51%
same,remaining binding at 0.3 µM,EPHA8,40%
same,remaining binding at 0.3 µM,EPHA3,46%
same,GI50,SR,439 nM
same,CC50,SR,59200 nM
same,half-life at 1 μM,Microsomal stability,0.986 h
same,microsomal CLint at 1 μM,Microsomal stability,23.4 µL/min/mg
same,Remaining Percentage (%) after 60 min,Microsomal stability,47.73%
same,GI50,SN12C,54 nM
same,CC50,SN12C,28100 nM
same,GI50,A549/ATCC,770 nM
same,CC50,A549/ATCC,36300 nM
same,GI50,OVCAR-4,999 nM
same,CC50,OVCAR-4,32400 nM
same,AUC(0-inf),"[1]; iv, i.v. 1 mg/kg free base",420 ng·h/mL
same,Cmax,"[1]; iv, i.v. 1 mg/kg free base",171 ng/mL
same,Tmax,"[1]; iv, i.v. 1 mg/kg free base",0.0833 h
same,AUC(0-t),"[1]; iv, i.v. 1 mg/kg free base",397 ng·h/mL
same,half-life,"[1]; iv, i.v. 1 mg/kg free base",7.11 h
same,MRT last,"[1]; iv, i.v. 1 mg/kg free base",6.6 h
same,AUC(0-inf),"[1]; po, p.o. 25 mg/kg free base",5960 ng·h/mL
same,Cmax,"[1]; po, p.o. 25 mg/kg free base",651 ng/mL
same,Tmax,"[1]; po, p.o. 25 mg/kg free base",2 h
same,AUC(0-t),"[1]; po, p.o. 25 mg/kg free base",5900 ng·h/mL
same,half-life,"[1]; po, p.o. 25 mg/kg free base",3.44 h
same,MRT last,"[1]; po, p.o. 25 mg/kg free base",6.78 h
"O=C(/C=C/CN1CCCCC1)Nc1cc2c(Nc3ccc(F)c(Cl)c3F)ncnc2cc1OCCOC(F)F.O=C(O)/C=C\C(=O)O.O=C(O)/C=C\C(=O)O [Example I-10-MA, (E)-N-[4-(3-chloro-2,4-difluoro-anilino)-7-[2-(difluoromethoxy)ethoxy]quinazolin-6-yl]-4-(1-piperidyl)but-2-enamide di-maleic acid salt]",GI50,SW-620,1810 nM
same,CC50,SW-620,34700 nM
same,remaining binding at 0.3 µM,EPHA5,49%
same,remaining binding at 0.3 µM,EPHA7,40%
same,remaining binding at 0.3 µM,EPHA1,24%
same,remaining binding at 0.3 µM,EPHA2,80%
same,remaining binding at 0.3 µM,EPHA4,50%
same,remaining binding at 0.3 µM,EPHA8,33%
same,remaining binding at 0.3 µM,EPHA3,45%
same,GI50,SR,816 nM
same,CC50,SR,> 100000 nM
same,half-life at 1 μM,Microsomal stability,1.45 h
same,microsomal CLint at 1 μM,Microsomal stability,15.9 µL/min/mg
same,Remaining Percentage (%) after 60 min,Microsomal stability,60.64%
same,GI50,SN12C,281 nM
same,CC50,SN12C,41200 nM
same,GI50,A549/ATCC,1000 nM
same,CC50,A549/ATCC,36600 nM
same,GI50,OVCAR-4,1310 nM
same,CC50,OVCAR-4,59900 nM
same,AUC(0-inf),"[1]; iv, i.v. 1 mg/kg free base",1730 ng·h/mL
same,Cmax,"[1]; iv, i.v. 1 mg/kg free base",1110 ng/mL
same,Tmax,"[1]; iv, i.v. 1 mg/kg free base",0.25 h
same,AUC(0-t),"[1]; iv, i.v. 1 mg/kg free base",1710 ng·h/mL
same,half-life,"[1]; iv, i.v. 1 mg/kg free base",4.75 h
same,MRT last,"[1]; iv, i.v. 1 mg/kg free base",2.99 h
same,AUC(0-inf),"[1]; po, p.o. 25 mg/kg free base",14000 ng·h/mL
same,Cmax,"[1]; po, p.o. 25 mg/kg free base",3830 ng/mL
same,Tmax,"[1]; po, p.o. 25 mg/kg free base",2 h
same,AUC(0-t),"[1]; po, p.o. 25 mg/kg free base",13900 ng·h/mL
same,half-life,"[1]; po, p.o. 25 mg/kg free base",3.25 h
same,MRT last,"[1]; po, p.o. 25 mg/kg free base",3.68 h
